Test results taken from ChEMBL document CHEMBL1158271, “Lupane derivatives from Lophopetalum wallichii with farnesyl protein transferase inhibitory activity” (J Nat Prod, 1996).
≈ marks a conversion by molar mass, not a printed value. One block for each compound: values may come before it.

Assays:
[1] = Inhibition of recombinant protein farnesyltransferase-mediated [3H]FPP transfer after 30 mins by scintillation counting
[2] = Cytotoxicity against human BC1 cells; assay type: functional, cell-based
[3] = tested on: HT; test: Cytotoxicity against human HT cells; assay type: functional, cell-based
[4] = tested on: Lu1; test: Cytotoxicity against human Lu1 cells; assay type: functional, cell-based
[5] = tested on: SK-MEL-2; test: Cytotoxicity against human SK-MEL-2 cells; assay type: functional, cell-based
[6] = tested on: KB; test: Cytotoxicity against human KB cells; assay type: functional, cell-based
[7] = Cytotoxicity against human KBVIN cells; assay type: functional, cell-based
[8] = tested on: A-431; test: Cytotoxicity against human A431 cells; assay type: functional, cell-based
[9] = tested on: LNCaP; test: Cytotoxicity against human LNCAP cells; assay type: functional, cell-based
[10] = tested on: ZR-75-1; test: Cytotoxicity against human ZR-75-1 cells; assay type: functional, cell-based
[11] = Cytotoxicity against human U373 cells; assay type: functional, cell-based, U-373MG ATCC; details: U373 MG
[12] = tested on: Col2; test: Cytotoxicity against human Col2 cells; assay type: functional, cell-based

Compound: CC1(C)C(=O)CC[C@]2(C)[C@H]3CC[C@@H]4[C@H]5[C@H]6[C@@H](C[C@]5(C)CC[C@@]4(C)[C@]3(C)CC[C@@H]12)OC(=O)[C@]61CO1 [20-EPI-OCHRACEOLIDE B]
IC50 [1]: > 100 µg/mL

Compound: C=C1C(=O)O[C@@H]2C[C@]3(C)CC[C@]4(C)[C@H](CC[C@@H]5[C@@]6(C)CC[C@H](O)C(C)(C)[C@@H]6CC[C@]54C)[C@H]3[C@H]12 [DIHYDRO OCHRACEOLIDE A]
IC50 [1]: > 100 µg/mL | EC50 [2]: 10.2 µg/mL (≈ 22.4 µM) | EC50 [3]: 9.6 µg/mL (≈ 21.1 µM) | EC50 [4]: 8.9 µg/mL (≈ 19.6 µM) | EC50 [5]: > 20 µg/mL | EC50 [6]: > 20 µg/mL | EC50 [7]: > 20 µg/mL | EC50 [8]: 6.8 µg/mL (≈ 15 µM) | EC50 [9]: 14.5 µg/mL (≈ 31.9 µM) | EC50 [10]: 3 µg/mL (≈ 6.6 µM) | EC50 [11]: 9.1 µg/mL (≈ 20 µM) | EC50 [12]: 12.1 µg/mL (≈ 26.6 µM)

Compound: C=C(C)[C@@H]1CC[C@]2(CO)CC[C@]3(C)[C@H](CC[C@@H]4[C@@]5(C)CC[C@H](O)C(C)(C)[C@@H]5CC[C@]43C)[C@@H]12 [BETULIN]
IC50 [1]: 1 µg/mL

Now from value to compound, other results behind:

IC50 [1]: > 100 µg/mL
Compound: C=C1C(=O)O[C@@H]2C[C@]3(C)CC[C@]4(C)[C@H](CC[C@@H]5[C@@]6(C)CCC(=O)C(C)(C)[C@@H]6CC[C@]54C)[C@H]3[C@H]12 [OCHRACEOLIDE A]
EC50 [2]: 7.9 µg/mL (≈ 17.5 µM) | EC50 [3]: 8.6 µg/mL (≈ 19 µM) | EC50 [4]: 16.1 µg/mL (≈ 35.6 µM) | EC50 [5]: > 20 µg/mL | EC50 [6]: > 20 µg/mL | EC50 [7]: 17.2 µg/mL (≈ 38 µM) | EC50 [8]: > 20 µg/mL | EC50 [9]: 13.4 µg/mL (≈ 29.6 µM) | EC50 [10]: 4.5 µg/mL (≈ 9.94 µM) | EC50 [11]: 6.7 µg/mL (≈ 14.8 µM) | EC50 [12]: > 20 µg/mL

IC50 [1]: 65 µg/mL
Compound: C=C(C)[C@@H]1CC[C@]2(C)CC[C@]3(C)[C@H](CC[C@@H]4[C@@]5(C)CC[C@H](O)C(C)(C)[C@@H]5CC[C@]43C)[C@@H]12 [LUPEOL]
